Laboratory results published in US8470765B2, “Polypeptides and antibacterial or antiseptic use of same” (AnGes MG, Inc., priority 2009, dated 2013).
≈ marks a conversion by molar mass, not a printed value. Read-outs that look alike come from different tables or passages of the source. No end group written: not given here.

Columns and labels:
[1] = test system: Escherichia coli ATCC 25922; assay: microbe, parasite or virus in culture; assay type: cell-based; settings: Table 4; two tests, first/second value where not identical
Experimental: (§1) Bacteria (Escherichia coli ATCC 25922, Pseudomonas aeruginosa ATCC 27853, Staphylococcus aureus ATCC29213, Klebsiella pneumoniae JCM 1662, Enterobacter cloacae JCM 1232, Enterobacter aerogenes JCM 1235 and Staphylococcus epidermidis JCM 2414) were inoculated to Mueller-Hinton broth: MHB or LB medium, and cultured at a temperature and period suited for each strain. From the thus obtained colonies, each strain was inoculated to a fresh liquid medium and cultured for 16 to 20 hours. Then an aliquot having a volume (10 to 50 appropriate to each strain was inoculated to a fresh liquid medium and cultured for 4 to 6 hours, followed by the measurement of the absorbance at 600 nm. After comparing the turbidity with McFarland #0.5, the resultant was diluted with a medium. Each strain was added to about 10^5 CFU/mL (final concentration). Each of the peptide solutions to be tested was diluted with MHB to obtain a solution of 128 μg/mL. […] As controls, tobramycin (TOB: aminoglucoside antibiotic), oxacillin (OX:β-lactam antibiotic), meropenem (MEPM: carbapenem antibiotic) and ciprofloxacin (new quinolone antibiotic) were used. […] To a 96-well microtiter plate, 0.1 mL of the inoculation solution and 0.1 mL of the peptide- or positive control-containing medium having the respective concentration were added, and cultured at 37° C. for 16 to 24 hours (or a time period suited for the growth of the respective strain). The well not containing the sample was used as a negative control. After the culturing, the growth was visually observed, and the minimum concentration at which the growth was inhibited was defined as the minimum growth inhibition concentration (MIC). The medium used in this test for bacteria was Mueller-Hinton broth. Independent experiments were carried out twice or more for each strain.

[2] = test system: Staphylococcus aureus ATCC29213; assay: microbe, parasite or virus in culture; assay type: cell-based
Experimental: as §1

[3] = test system: Staphylococcus epidermidis JCM 2414; assay: microbe, parasite or virus in culture; assay type: cell-based; settings: for MIC Staphylococcus epidermidis: JCM 2414
Experimental: as §1

[4] = test system: Pseudomonas aeruginosa ATCC 27853; assay: microbe, parasite or virus in culture; assay type: cell-based
Experimental: as §1

[5] = test system: Salmonella enteritidis IID 604; settings: IID 604
[6] = test system: Salmonella typhimurium JCM1652
[7] = test system: Micrococcus luteus NBRC13867
[8] = test system: Trichophyton rubrum NBRC9185; settings: NBRC9185
[9] = test system: Bacillus subtilis NBRC3134; settings: NBRC3134
[10] = test system: Streptococcus pyogenes JCM5674
[11] = test system: Actinobacillus actinomycetemcomitans JCM2434
[12] = test system: Escherichia coli ATCC 25922; assay: ATP Assay (viability at 3 hours), Table 6; assay type: cell-based; settings: for Escherichia coli ATP (viability, relative value to negative control): 3 h, 5 μg/mL
Experimental: (§2) Bacteria (Escherichia coli ATCC 25922, Pseudomonas aeruginosa ATCC 27853, Staphylococcus aureus ATCC29213, and Staphylococcus epidermidis JCM 2414) were inoculated to Mueller-Hinton broth: MHB or LB medium, and cultured at a temperature and period suited for each strain. From the thus obtained colonies, each strain was inoculated to a fresh liquid medium and cultured for 16 to 20 hours. Then an aliquot having a volume (10 to 50 μL) appropriate to each strain was inoculated to a fresh liquid medium and cultured for 4 to 6 hours, followed by the measurement of the absorbance at 600 nm. After comparing the turbidity with McFarland #0.5, the resultant was diluted with a medium. Each strain was added to about 10^5 CFU/mL (final concentration).
(§3) Each of the peptide solutions to be tested was diluted with the medium to obtain a solution of 10 μg/mL. As positive controls, tobramycin (TOB), oxacillin (OX) and meropenem (MEPM) were used. By dilution with sterilized purified water to 1.0 mg/mL, positive control-containing media having concentrations of […], respectively for TOB; 0.5, 0.12 and 0.06 μg/mL, respectively, for OX; and 1.0, 0.25, 0.12, 0.06, 0.03 and 0.008 μg/mL respectively, for MEPM, were prepared. To a 96-well microtiter plate, 0.1 mL of the inoculation solution and 0.1 mL of the peptide- or positive control-containing medium having the respective concentration were added, and cultured at 37° C. for 3 hours. The well not containing the sample was used as a negative control. After the culturing, ATP was measured using BacTiter-Glo Microbial Cell Viability Assay kit of PROMEGA, and compared with that in the negative control to obtain a relative value which was defined as a viability. The antibacterial activity was evaluated based on the viability at 3 hours later using ATP as an index.
(§4) The medium used in this test for bacteria was Mueller-Hinton broth. Independent experiments were carried out twice for each strain.

[13] = test system: Staphylococcus aureus ATCC29213; assay: ATP Assay (viability at 3 hours), Table 6; assay type: cell-based; settings: for Staphylococcus aureus ATP (viability, relative value to negative control): 3 h, 5 μg/mL
Experimental: as §2, §3, §4

[14] = test system: Pseudomonas aeruginosa ATCC 27853; assay: ATP Assay (viability at 3 hours), Table 6; assay type: cell-based; settings: for Pseudomonas aeruginosa ATP (viability, relative value to negative control): 3 h, 5 μg/mL
Experimental: as §2, §3, §4

[15] = test system: Trichophyton mentagrophytes NBRC6124; settings: NBRC6124
[16] = test system: Acinetobacter baumanni JCM6841; settings: JCM6841
[17] = test system: Alternaria alternata JCM5800
[18] = test system: Bacteroides fragilis JCM 11019
Fusarium solani JCM11383 = settings: JCM11383
[19] = test system: Fusobacterium nucleatum JCM 11025
[20] = test system: methicillin-sensitive Staphylococcus (MSSA) MSSA(i); assay: organism not typed; settings: read-out: MIC MSSA(i)
Experimental: as §2, with “ATCC29213, Klebsiella pneumoniae JCM 1662, Enterobacter cloacae JCM 1232, Enterobacter aerogenes JCM 1235” for “ATCC29213,”, “50” for “50 μL)”
(§5) Further, the antibacterial activities against the clinical strains collected and isolated from infected patients were also examined. The tests were carried out for two methicillin-resistant Staphylococcus (MRSA) (MRSA (i) and (ii)), two methicillin-sensitive Staphylococcus (MSSA) (MSSA (i) and (ii)), five Pseudomonas aeruginosa, Pseudomonas aeruginosa 1, Pseudomonas aeruginosa 6, Pseudomonas aeruginosa 8. Pseudomonas aeruginosa 9 and Pseudomonas aeruginosa 12, totally 9 clinical strains. The MRSA and MSSA clinical strains were tested by the same method as Staphylococcus aureus ATCC29213, and Pseudomonas clinical strains were tested by the same method as Pseudomonas aeruginosa ATCC 27853.
(§6) Each of the peptide solutions to be tested was diluted with MHB to obtain a solution of 128 μg/mL. This solution was serially diluted with the medium to prepare peptide-containing media having concentrations of 128, 64, 32, 16, 8.0, 4.0 and 2.0 μg/mL respectively. […] By dilution with sterilized purified water to 1.0 mg/mL, positive control-containing media having concentrations of 16, 8, 4, 2, 1.0, 0.25, 0.12 and 0.06 μg/mL, respectively for TOB; 0.5, 0.12 and 0.06 μg/mL, respectively, for OX; and 16, 8, 4, 2, 1.0, 0.25, 0.12, 0.06, 0.06, 0.03 and 0.008 μg/mL, respectively, for MEPM, were prepared.
(§7) To a 96-well microtiter plate, 0.1 mL of the inoculation solution and 0.1 mL of the peptide- or positive control-containing medium having the respective concentration were added, and cultured at 37° C. for 16 to 24 hours (or a time period suited for the growth of the respective strain). The well not containing the sample was used as a negative control. After the culturing, the growth was visually observed, and the minimum concentration at which the growth was inhibited was defined as the minimum growth inhibition concentration (MIC).
(§8) The medium used in this test for bacteria was Mueller-Hinton broth. Independent experiments were carried out twice or more for each strain.

[21] = test system: methicillin-sensitive Staphylococcus (MSSA) MSSA(ii); assay: organism not typed; settings: read-out: MIC MSSA(ii)
Experimental: as §2, with “ATCC29213, Klebsiella pneumoniae JCM 1662, Enterobacter cloacae JCM 1232, Enterobacter aerogenes JCM 1235” for “ATCC29213,”, “50” for “50 μL)”
as §5, §6, §7, §8

[22] = test system: methicillin-resistant Staphylococcus (MRSA) MRSA(ii); assay: organism not typed; settings: read-out: MIC MRSA(ii)
Experimental: as §2, with “ATCC29213, Klebsiella pneumoniae JCM 1662, Enterobacter cloacae JCM 1232, Enterobacter aerogenes JCM 1235” for “ATCC29213,”, “50” for “50 μL)”
as §5, §6, §7, §8

[23] = test system: methicillin-resistant Staphylococcus (MRSA) MRSA(i); assay: organism not typed; settings: read-out: MIC MRSA(i)
Experimental: as §2, with “ATCC29213, Klebsiella pneumoniae JCM 1662, Enterobacter cloacae JCM 1232, Enterobacter aerogenes JCM 1235” for “ATCC29213,”, “50” for “50 μL)”
as §5, §6, §7, §8

[24] = Table 4, two tests, first/second value where not identical

Compound	MIC Escherichia coli [1]	MIC Staphylococcus aureus [2, 24]	MIC Staphylococcus epidermidis [3] [µg/mL]	MIC Salmonella Enteritidis [5] [µg/mL]	MIC Salmonella Typhimurium ([6]; JCM1652) [µg/mL]	MIC Micrococcus luteus [7] [µg/mL]	MIC Trichophyton rubrum [8] [µg/mL]	MIC Candida krusei (Candida krusei NBRC1395; NBRC1395) [µg/mL]	MIC Bacillus subtilis [9] [µg/mL]	MIC Streptococcus pyogenes [10] [µg/mL]	MIC Actinobacillus actinomycetemcomitans [11] [µg/mL]	Escherichia coli ATP (viability, relative value to negative control) [12]	Staphylococcus aureus ATP (viability, relative value to negative control) [13]	Pseudomonas aeruginosa ATP (viability, relative value to negative control) [14]	MIC Trichophyton mentagrophytes [15] [µg/mL]	MIC Acinetobacter baumanni [16] [µg/mL]	MIC Alternaria alternata ([17]; JCM5800) [µg/mL]	MIC Fusarium solani (Fusarium solani JCM11383) [µg/mL]	MIC Fusobacterium nucleatum ([19]; JCM 11025) [µg/mL]	MIC Pseudomonas aeruginosa [4, 24]	also measured
GRLKRMGERLKRKIQKLIRL-NH2 [SRP-21]	16/32	8/32	8000 to 16000	2	2	1	128	32	2	8	32	3.7	1.8	3.8	64	32	64	16	4	–	MIC Pseudomonas aeruginosa ([4]; ATCC 27853): 8 µg/mL; MIC Bacteroides fragilis ([18]; JCM 11019): 16 µg/mL
Ac-KLIFLRELRRLRKRLKRKLR-NH2 [SRP-20]	8/16	–	8000 to 16000	4	4	2	32	16	2	32	128	6.2	3.2	1.1	16	16	–	4	4	8/16	MIC Staphylococcus aureus ([2]; ATCC29213): 16 µg/mL; MIC Alternaria alternata [17, 24]: 32/64; MIC Bacteroides fragilis [18, 24]: 8/16
Cc1onc(-c2ccccc2)c1C(=O)N[C@@H]1C(=O)N2[C@@H]1SC(C)(C)[C@@H]2C(=O)O [oxacillin, reference compound]	–	–	–	–	–	–	–	–	–	–	–	–	–	–	–	–	–	–	–	–	MIC ([2]; Staphylococcus aureus, ATCC29213, read-out: MIC Staphylococcus aureus, Table 4, two tests, first/second value where not identical): 0.15 to 0.5 µg/mL (≈ 0.374 to 1.25 µM); MIC ([3]; Staphylococcus epidermidis, JCM2414, read-out: MIC Staphylococcus epidermidis, Table 4, two tests, first/second value where not identical): 0.15 to 0.5 µg/mL (≈ 0.374 to 1.25 µM); viability at 10 µg/mL ([12]; ATCC25922, 3 h, read-out: Escherichia coli ATP (viability, relative value to negative control)): 142%; viability at 10 µg/mL ([13]; ATCC29213, 3 h, read-out: Staphylococcus aureus ATP (viability, relative value to negative control)): 121%; viability at 10 µg/mL ([14]; ATCC27853, 3 h, read-out: Pseudomonas aeruginosa ATP (viability, relative value to negative control)): 100%; MIC [20]: 8 µg/mL (≈ 19.9 µM); MIC [21]: 2 µg/mL (≈ 4.98 µM); MIC [22]: > 8000 µg/mL; MIC [23]: < 4000 µg/mL
Ac-GRLKRMGKRLKRKIQKWARW-NH2 [SRP-18]	8/16	8/16	8	2	–	1	32	–	2	16	64	1.7	2.0	1.5	16	32	32	8	–	4/8	MIC Salmonella Typhimurium [6, 24]: 4/2; MIC Candida krusei (Candida krusei NBRC1395; [24]): 32/16; MIC Bacteroides fragilis [18, 24]: 64/32; MIC Fusobacterium nucleatum [19, 24]: 32/16
